Among the data in the NIST ThermoML archive (doi:10.1016/j.fluid.2018.11.010) are surface tension liquid-gas values, retold here.

SMILES strings stand for the structures.

This data set in a line: wn = mass fraction of the nth substance listed. The following applies: 298.15 K, Wilhelmy plate method.

In the case of `CC(=O)[O-].CCCCCCn1cc[n+](C)c1` [3-hexyl-1-methylimidazolium acetate] + O, the surface tension liquid-gas – broadly, the work needed to enlarge the surface of a liquid by unit area – runs as follows: (w1 = 7e-05) 66.55 mN/m; (w1 = 0.00069) 60.77 mN/m; (w1 = 0.01013) 51.97 mN/m; (w1 = 0.3005) 41 mN/m; (w1 = 1) 36 mN/m.
